Patent US20130052162A1, “BOOSTING IMMUNE DEFENSE BY UPREGULATING CCAAT/ENHANCER BINDING PROTEIN EPSILON” (CEDARS-SINAI MEDICAL CENTER, priority 2010, published 2013)
Several values for one entry are separate records, joined by “and”; a condition that tells them apart may be missing. Identical values can stand only once. Entries after “also recorded” stand apart in the source; their conditions may differ.

Assays:
S. aureus = test: Human peripheral whole blood killing assay, S. aureus; assay type: cell-based
K. pneumoniae = test: Human peripheral whole blood killing assay, K. pneumoniae; assay type: cell-based; settings: NAM-pretreated human blood, 3 h of infection
Procedure: (§1) This well described phagocytic survival assay has been previously reported^42. Bacteria was pelleted, washed twice, diluted to the specified inoculum in 25 μl PBS (without Ca^2+ and Mg^2+), and immediately mixed with 75 μl of freshly drawn human or murine peripheral whole blood in sterile heparinized 2 mL round-bottom Eppendorf tubes. When required, murine plasma was obtained by centrifugation of heparinized whole blood at 2000×g for 15 min at RT. Reactions (performed in minimum in triplicate) were incubated at 37° C. for 1-3 h on a rotary shaker, at which time ten-fold serial dilutions were plated on THA for enumeration of surviving CFU.
(§2) When required, freshly drawn human or murine peripheral blood was pretreated with NAM (˜0.1 mM or ˜10 mM) or PBS (without Ca^2+ and Mg^2+), prior to inoculation with bacteria.
(§3) Participants in the inventors' study included 15 healthy humans with a negative history of infection or antibiotic treatments in the prior 4 weeks. Peripheral blood was collected from individuals in a fasting condition. Polymorph-prep (Axis-Shield, Oslo, Norway) was used for the isolation of PMNs according to the manufacturer's protocol.

P. aeruginosa = test: Human peripheral whole blood killing assay, P. aeruginosa; assay type: cell-based; settings: NAM-pretreated human blood
Procedure: as §1, §2, §3

[1] = CBC of peripheral whole blood of WT mice treated in vivo with NAM; set-up: species or system mouse
Procedure: WT mice treated in vivo with NAM (250 mg/kg/day; i.p.) or PBS (control) for a) 24 h, b) 48 h, and c) 72 h. Then, peripheral whole blood was removed from each of the mice and CBCs were performed. […] (Table 2A-C)

[2] = human trials, patients undergoing radiotherapy; cited from earlier work
[3] = 24 h post-treatment, 250 mg/kg/d, individual mice, 250 mg/kg/day

NC(=O)c1cccnc1 [NAM, Nicotinamide]
CFU recovered, NAM- vs PBS-treated blood (S. aureus; NAM 1 mM or 10 mM 24 h, 1 h and 3 h of infection): Significantly less CFU
reduction of S. aureus survival in whole blood vs PBS (S. aureus; NAM 1 mM or 10 mM 24 h pretreatment, 3 h p.i.): 2-3 log10
K. pneumoniae CFU recovered / outcome, NAM- vs PBS-treated blood (K. pneumoniae): improved the outcome of infection; also recorded: Significantly less CFU
P. aeruginosa CFU recovered / outcome, NAM- vs PBS-treated blood (P. aeruginosa): improved the outcome of infection; also recorded: enhances clearance
Hematological Abnormalities ([1]; 24 h post-treatment, 250 mg/kg/d, individual mice): Normal
LY [1, 3]: 3.97 K/uL and 1.89 K/uL and 3.84 K/uL and 76.92% and 67.88% and 71.36%
MO [1, 3]: 0.18 K/uL and 0.28 K/uL and 3.77% and 6.47% and 5.28%
NE [1, 3]: 0.95 K/uL and 0.65 K/uL and 1.00 K/uL and 18.47% and 23.40% and 18.67%
WBC [1, 3]: 5.16 K/uL and 2.78 K/uL and 5.38 K/uL
WBC, Mean ([1]; 24 h post-treatment, 250 mg/kg/d, mean of 10 mice): 3.63 K/uL
Hematological Abnormalities ([1]; 48 h post-treatment, 250 mg/kg/d, individual mice): Normal
WBC ([1]; 48 h post-treatment, 250 mg/kg/d, individual mice, 250 mg/kg/day): 6.34 K/uL and 1.86 K/uL and 3.30 K/uL and 4.64 K/uL and 2.70 K/uL
WBC, Mean ([1]; 48 h post-treatment, 250 mg/kg/d, mean of 5 mice): 3.77 K/uL
Hematological Abnormalities ([1]; 72 h post-treatment, 250 mg/kg/d, individual mice): Normal
WBC ([1]; 72 h post-treatment, 250 mg/kg/d, individual mice, 250 mg/kg/day): 2.20 K/uL and 4.08 K/uL and 5.66 K/uL and 2.24 K/uL and 3.62 K/uL and 6.22 K/uL and 3.06 K/uL and 5.48 K/uL
WBC, Mean ([1]; 72 h post-treatment, 250 mg/kg/d, mean of 8 mice): 4.07 K/uL
CBCs, NAM- vs PBS-treated mice ([1]; mouse, in vivo): No differences in CBCs
plasma concentration routinely achieved [2]: 1 mM
